Source: the supplement of paper PMC10307832

Columns and labels:
Assay in all cases: relative viability (nuclei count vs DMSO), 5 days (fraction); higher = more cells survive
NCI-H2170 = tested on: NCI-H2170
How it was run: (§1)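 Lung cancer cell lines were seeded in 1536-well plates and dosed by pin tool the next day, with either a single drug or a fixed anchor-drug dose combined with five library-drug doses (not always all listed) spaced in √10 steps. Five days later, one step fixed the cells and stained their nuclei (final 0.05% Triton X-100, 1% formaldehyde, 1 ug/ml Hoechst), and nuclei were counted on 4× images. Relative viability is the nuclei count in treated wells divided by the count in vehicle wells, and each value is the median of duplicate plates.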

NCI-H1944 = tested on: NCI-H1944
How it was run: as §1

HCC-78 = tested on: HCC-78
How it was run: as §1

NCI-H2347 = tested on: NCI-H2347
How it was run: as §1

SW 900 = tested on: SW 900
How it was run: as §1

PC-14 = tested on: PC-14
How it was run: as §1

HCC-366 = tested on: HCC-366
How it was run: as §1

NCI-H650 = tested on: NCI-H650
How it was run: as §1

NCI-H727 = tested on: NCI-H727
How it was run: as §1

RERF-LC-KJ = tested on: RERF-LC-KJ
How it was run: as §1

NCI-H1915 = tested on: NCI-H1915
How it was run: as §1

BEN = tested on: BEN
How it was run: as §1

EMC-BAC-2 = tested on: EMC-BAC-2
How it was run: as §1

NCI-H2085 = tested on: NCI-H2085
How it was run: as §1

NCI-H2087 = tested on: NCI-H2087
How it was run: as §1

NCI-H1666 = tested on: NCI-H1666
How it was run: as §1

LC-2-ad = tested on: LC-2-ad
How it was run: as §1

LXF-289 = tested on: LXF-289
How it was run: as §1

NCI-H1993 = tested on: NCI-H1993
How it was run: as §1

NCI-H358 = tested on: NCI-H358
How it was run: as §1

Nc1cccc2c1CN(C1CCC(=O)NC1=O)C2=O (stereo unspecified) [Lenalidomide] + NC(=O)Nc1cc(-c2cccc(F)c2)sc1C(=O)N[C@H]1CCCNC1 [AZD7762] (partner 0.2 µM)
relative viability (NCI-H2170; first compound 0.253 µM): 0.861
relative viability (NCI-H2170; first compound 0.8 µM): 0.703
relative viability (NCI-H2170; first compound 2.53 µM): 0.976
relative viability (NCI-H2170; first compound 8 µM): 0.739
relative viability (NCI-H1944; first compound 0.253 µM): 0.545
relative viability (NCI-H1944; first compound 2.53 µM): 0.709
relative viability (NCI-H1944; first compound 8 µM): 0.386
relative viability (HCC-78; first compound 0.253 µM): 0.767
relative viability (HCC-78; first compound 0.8 µM): 0.537
relative viability (HCC-78; first compound 2.53 µM): 0.617
relative viability (HCC-78; first compound 8 µM): 0.417
relative viability (NCI-H2347; first compound 0.253 µM): 0.787
relative viability (NCI-H2347; first compound 0.8 µM): 0.689
relative viability (NCI-H2347; first compound 2.53 µM): 0.811
relative viability (NCI-H2347; first compound 8 µM): 0.703
relative viability (SW 900; first compound 2.53 µM): 0.578
relative viability (SW 900; first compound 8 µM): 0.456
relative viability (PC-14; first compound 0.253 µM): 0.384
relative viability (PC-14; first compound 0.8 µM): 0.297
relative viability (PC-14; first compound 2.53 µM): 0.386
relative viability (PC-14; first compound 8 µM): 0.427
relative viability (HCC-366; first compound 0.253 µM): 0.258
relative viability (HCC-366; first compound 0.8 µM): 0.268
relative viability (HCC-366; first compound 2.53 µM): 0.371
relative viability (HCC-366; first compound 8 µM): 0.335
relative viability (NCI-H650; first compound 0.253 µM): 1.06
relative viability (NCI-H650; first compound 0.8 µM): 0.927
relative viability (NCI-H650; first compound 2.53 µM): 1.06
relative viability (NCI-H650; first compound 8 µM): 0.89
relative viability (NCI-H727; first compound 0.253 µM): 0.655
relative viability (NCI-H727; first compound 0.8 µM): 0.574
relative viability (NCI-H727; first compound 2.53 µM): 0.555
relative viability (NCI-H727; first compound 8 µM): 0.709
relative viability (RERF-LC-KJ; first compound 0.253 µM): 1.01
relative viability (RERF-LC-KJ; first compound 0.8 µM): 0.319
relative viability (RERF-LC-KJ; first compound 2.53 µM): 1.18
relative viability (RERF-LC-KJ; first compound 8 µM): 0.82
relative viability (NCI-H1915; first compound 0.253 µM): 0.678
relative viability (NCI-H1915; first compound 0.8 µM): 0.699
relative viability (NCI-H1915; first compound 2.53 µM): 0.739
relative viability (NCI-H1915; first compound 8 µM): 0.682
relative viability (BEN; first compound 0.253 µM): 0.783
relative viability (BEN; first compound 0.8 µM): 0.503
relative viability (BEN; first compound 2.53 µM): 0.701
relative viability (BEN; first compound 8 µM): 0.563
relative viability (EMC-BAC-2; first compound 0.253 µM): 1.12
relative viability (EMC-BAC-2; first compound 0.8 µM): 0.64
relative viability (EMC-BAC-2; first compound 2.53 µM): 1.19
relative viability (EMC-BAC-2; first compound 8 µM): 0.931
relative viability (NCI-H2085; first compound 0.253 µM): 0.991
relative viability (NCI-H2085; first compound 0.8 µM): 1.02
relative viability (NCI-H2085; first compound 2.53 µM): 0.982
relative viability (NCI-H2085; first compound 8 µM): 0.919
relative viability (NCI-H2087; first compound 0.253 µM): 1.29
relative viability (NCI-H2087; first compound 2.53 µM): 1.29
relative viability (NCI-H2087; first compound 8 µM): 1.23
relative viability (NCI-H1666; first compound 0.253 µM): 0.895
relative viability (NCI-H1666; first compound 0.8 µM): 0.716
relative viability (NCI-H1666; first compound 2.53 µM): 0.985
relative viability (NCI-H1666; first compound 8 µM): 0.874
relative viability (LC-2-ad; first compound 0.253 µM): 0.902
relative viability (LC-2-ad; first compound 0.8 µM): 0.928
relative viability (LC-2-ad; first compound 2.53 µM): 0.865
relative viability (LC-2-ad; first compound 8 µM): 0.94
relative viability (LXF-289; first compound 0.253 µM): 1.09
relative viability (LXF-289; first compound 0.8 µM): 1.1
relative viability (LXF-289; first compound 2.53 µM): 1.23
relative viability (LXF-289; first compound 8 µM): 1.26
relative viability (NCI-H1993; first compound 0.253 µM): 0.587
relative viability (NCI-H1993; first compound 0.8 µM): 0.646
relative viability (NCI-H1993; first compound 2.53 µM): 0.702
relative viability (NCI-H1993; first compound 8 µM): 0.539
relative viability (NCI-H358; first compound 0.253 µM): 0.521
relative viability (NCI-H358; first compound 0.8 µM): 0.713
relative viability (NCI-H358; first compound 2.53 µM): 0.494
relative viability (NCI-H358; first compound 8 µM): 0.621
